US20130149395A1, “Pharmaceutical Product, Method of Production and Method of Application of the Pharmaceutical Product” (priority 2010, published 2013)

Assay: Stability of 2,2-dichloropropionic acid during prolonged storage (NMR impurity identification)
Assay type: physicochemical
Details: transforms into pyroracemic acid or alpha chloroacrylic acid
Text: The impurity identification of 2,2-dichloropropionic acid, taken as an example, has been conducted using the method of NMR spectroscopy on the ^1H and ^13C nuclei, one of the most informative methods, which allows to determine the composition of each impurity even if the numerous related compounds are found in the sample.

CC(Cl)(Cl)C(=O)O [2,2-dichloropropionic acid]
Stability to daylight and prolonged storage: daylight-sensitive
